The record followed here is ChEMBL document CHEMBL1142182, “Novel Ambler class A beta-lactamase LAP-1 and its association with the plasmid-mediated quinolone resistance determinant QnrS1” (Antimicrob Agents Chemother, 2007).

In brackets after ≈: the same amount, converted by molar mass. Where only a bound is given, the exact number is not on record here.

For test [1], the system named is Escherichia coli. The test can be described thus: Antibacterial activity against Escherichia coli DH10B expressing recombinant beta lactamase LAP1. The format is functional.
For test [2], the system named is Enterobacter cloacae. The test can be described thus: Antibacterial activity against Enterobacter cloacae S3 isolate by agar dilution technique. Type of test: functional.
Test [3] relates to Escherichia coli. The test can be described thus: Antibacterial activity against Escherichia coli DH10B. Type of test: functional.
Test [4] concerns Enterobacter cloacae.
Description: Activity of Enterobacter cloacae S3 isolate beta lactamase LAP1 expressed in Escherichia coli DH10B
Test [5] in a line: Inhibition of Enterobacter cloacae S3 isolate beta lactamase LAP1 expressed in Escherichia coli DH10B.
Test [6] relates to Enterobacter cloacae. The source holds these as a separate data set.
Description: Ratio of kcat to Km of Enterobacter cloacae S3 isolate beta lactamase LAP1 expressed in Escherichia coli DH10B

The MIC is the least concentration at which growth counts as inhibited. For `CC1(C)S[C@@H]2[C@H](NC(=O)[C@H](C(=O)O)c3ccsc3)C(=O)N2[C@H]1C(=O)O` [TICARCILLIN], the MIC is 512 mg/L in test [1], > 512 mg/L in test [2] and 4 mg/L (≈ 10.4 µM) in test [3].
As for `CC(C)(O/N=C(\C(=O)N[C@@H]1C(=O)N2C(C(=O)[O-])=C(C[n+]3ccccc3)CS[C@H]12)c1csc(N)n1)C(=O)O` [CEFTAZIDIME], the values for the MIC in test [1], in test [2] and in test [3] were 0.12 mg/L, 0.5 mg/L (≈ 0.915 µM) and 0.06 mg/L (≈ 0.11 µM), respectively.
As usually defined, the Km is the concentration of substrate that gives half-maximal velocity. One may read the IC50 as the concentration at which inhibition is half-maximal. The low end stands for greater potency, the high end for weaker potency. What is called kcat/Km is the second-order rate constant that governs catalysis at low substrate concentration. In the case of `CC1(C)S[C@@H]2[C@H](NC(=O)Cc3ccccc3)C(=O)N2[C@H]1C(=O)O` [PENICILLIN G], the Km in test [4] came to 20 µM. In test [5], this compound returned an IC50 of 0.08 µM. Further, the kcat/Km in test [6] turned out to be 1e+07 M⁻¹ s⁻¹.
On to `CO/N=C(\C(=O)N[C@@H]1C(=O)N2C(C(=O)O)=C(COC(N)=O)CS[C@H]12)c1ccco1` [CEFUROXIME], for which the Km in test [4] is > 2000 µM. The MIC amounted to 8 mg/L in test [1], 256 mg/L (≈ 603 µM) in test [2] and 2 mg/L (≈ 4.71 µM) in test [3]. Besides, in test [6], the kcat/Km is > 50000 M⁻¹ s⁻¹.
`C[C@@H](O)[C@H]1C(=O)N2C(C(=O)O)=C(SCCNC=N)C[C@H]12` [IMIPENEM ANHYDROUS] came in with an MIC in test [2] of 0.12 mg/L (≈ 0.401 µM).
Regarding `CO/N=C(\C(=O)N[C@@H]1C(=O)N2C(C(=O)[O-])=C(C[N+]3(C)CCCC3)CS[C@H]12)c1csc(N)n1`, the MIC in test [1] came to 0.12 mg/L.
With `CC1(C)S[C@@H]2[C@H](NC(=O)[C@H](N)c3ccc(O)cc3)C(=O)N2[C@H]1C(=O)O` [AMOXICILLIN], in test [4], the Km was found to be 180 µM. Besides, the MIC in test [1] is 512 mg/L; in test [2], > 512 mg/L; in test [3], 4 mg/L (≈ 10.9 µM). The catalytic efficiency (kcat/Km) in test [6] stood at 3.3e+06 M⁻¹ s⁻¹.
Take `CC(=O)OCC1=C(C(=O)O)N2C(=O)[C@@H](NC(=O)Cc3cccs3)[C@H]2SC1` [CEPHALOTHIN]: the Km in test [4] was found to be 400 µM. Also, the figures for the MIC in test [1], in test [2] and in test [3] were 16 mg/L, > 512 mg/L and 4 mg/L (≈ 10.1 µM), respectively. The kcat/Km in test [6] stood at 90000 M⁻¹ s⁻¹.
As for `CCN1CCN(C(=O)N[C@@H](C(=O)N[C@@H]2C(=O)N3[C@@H]2SC(C)(C)[C@@H]3C(=O)O)c2ccccc2)C(=O)C1=O` [PIPERACILLIN], the Km in test [4] came out at 50 µM. Further, the MIC in test [1] was found to be 4 mg/L; in test [2], 16 mg/L (≈ 30.9 µM); in test [3] it was 1 mg/L (≈ 1.93 µM). Moreover, the kcat/Km in test [6] was found to be 1.5e+06 M⁻¹ s⁻¹.
Turning to `CO/N=C(\C(=O)N[C@@H]1C(=O)N2C(C(=O)O)=C(COC(C)=O)CS[C@H]12)c1csc(N)n1` [CEFOTAXIME], the figures for the MIC in test [1], in test [2] and in test [3] were 0.12 mg/L, 0.25 mg/L (≈ 0.549 µM) and 0.12 mg/L (≈ 0.263 µM), respectively.
With `CO[C@@]1(NC(=O)Cc2cccs2)C(=O)N2C(C(=O)O)=C(COC(N)=O)CS[C@@H]21` [CEFOXITIN], the MIC turned out to be 4 mg/L in test [1], 256 mg/L (≈ 599 µM) in test [2] and 4 mg/L (≈ 9.36 µM) in test [3].
